Source: ChEMBL document CHEMBL5678818, “Discovery of potent SOS1 inhibitors that block RAS activation via disruption of the RAS-SOS1 interaction” (Proc Natl Acad Sci U S A, 2019)

How the values were obtained:
[1] = target: Proto-oncogene tyrosine-protein kinase ROS (Homo sapiens) (UniProt P08922); assay: Inhibition of ROS1 (unknown origin) assessed as residual activity at 1000 nM by KINOMEscan analysis relative to control
[2] = target: T1, Cytoplasmic tyrosine-protein kinase BMX (Homo sapiens) (UniProt P51813); assay: Inhibition of BMX (unknown origin) assessed as residual activity at 1000 nM by KINOMEscan analysis relative to control
T1 sequence (whole entry): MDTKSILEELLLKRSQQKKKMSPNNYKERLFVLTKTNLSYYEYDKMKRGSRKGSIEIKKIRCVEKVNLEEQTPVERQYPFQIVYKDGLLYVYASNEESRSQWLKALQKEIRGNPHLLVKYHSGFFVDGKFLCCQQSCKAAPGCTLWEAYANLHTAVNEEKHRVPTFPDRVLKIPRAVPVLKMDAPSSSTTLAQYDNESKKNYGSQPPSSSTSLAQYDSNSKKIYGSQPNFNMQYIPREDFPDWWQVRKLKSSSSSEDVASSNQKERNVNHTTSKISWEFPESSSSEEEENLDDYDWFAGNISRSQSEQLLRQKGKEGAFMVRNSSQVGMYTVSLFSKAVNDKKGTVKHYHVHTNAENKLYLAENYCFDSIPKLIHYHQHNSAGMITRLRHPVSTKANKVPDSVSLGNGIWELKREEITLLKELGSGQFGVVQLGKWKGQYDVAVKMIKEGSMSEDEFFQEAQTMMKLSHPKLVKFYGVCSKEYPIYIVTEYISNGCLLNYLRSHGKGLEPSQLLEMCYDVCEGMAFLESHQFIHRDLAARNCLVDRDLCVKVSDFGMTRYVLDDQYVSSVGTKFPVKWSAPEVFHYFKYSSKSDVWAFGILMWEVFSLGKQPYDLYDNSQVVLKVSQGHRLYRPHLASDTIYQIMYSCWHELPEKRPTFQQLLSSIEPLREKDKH

[3] = target: CDK4/Cyclin D3 (Homo sapiens) (UniProt P11802+P30281); assay: Inhibition of CDK4-cyclin D3 (unknown origin) assessed as residual activity at 1000 nM by KINOMEscan analysis relative to control; assay type: protein-complex assay
[4] = target: Cyclin-dependent kinase 18 (Homo sapiens) (UniProt Q07002); assay: Inhibition of PCTK3 (unknown origin) assessed as residual activity at 1000 nM by KINOMEscan analysis relative to control
[5] = target: T2, Tyrosine-protein kinase Mer (Homo sapiens) (UniProt Q12866); assay: Inhibition of MERTK (unknown origin) assessed as residual activity at 1000 nM by KINOMEscan analysis relative to control
T2 sequence (whole entry): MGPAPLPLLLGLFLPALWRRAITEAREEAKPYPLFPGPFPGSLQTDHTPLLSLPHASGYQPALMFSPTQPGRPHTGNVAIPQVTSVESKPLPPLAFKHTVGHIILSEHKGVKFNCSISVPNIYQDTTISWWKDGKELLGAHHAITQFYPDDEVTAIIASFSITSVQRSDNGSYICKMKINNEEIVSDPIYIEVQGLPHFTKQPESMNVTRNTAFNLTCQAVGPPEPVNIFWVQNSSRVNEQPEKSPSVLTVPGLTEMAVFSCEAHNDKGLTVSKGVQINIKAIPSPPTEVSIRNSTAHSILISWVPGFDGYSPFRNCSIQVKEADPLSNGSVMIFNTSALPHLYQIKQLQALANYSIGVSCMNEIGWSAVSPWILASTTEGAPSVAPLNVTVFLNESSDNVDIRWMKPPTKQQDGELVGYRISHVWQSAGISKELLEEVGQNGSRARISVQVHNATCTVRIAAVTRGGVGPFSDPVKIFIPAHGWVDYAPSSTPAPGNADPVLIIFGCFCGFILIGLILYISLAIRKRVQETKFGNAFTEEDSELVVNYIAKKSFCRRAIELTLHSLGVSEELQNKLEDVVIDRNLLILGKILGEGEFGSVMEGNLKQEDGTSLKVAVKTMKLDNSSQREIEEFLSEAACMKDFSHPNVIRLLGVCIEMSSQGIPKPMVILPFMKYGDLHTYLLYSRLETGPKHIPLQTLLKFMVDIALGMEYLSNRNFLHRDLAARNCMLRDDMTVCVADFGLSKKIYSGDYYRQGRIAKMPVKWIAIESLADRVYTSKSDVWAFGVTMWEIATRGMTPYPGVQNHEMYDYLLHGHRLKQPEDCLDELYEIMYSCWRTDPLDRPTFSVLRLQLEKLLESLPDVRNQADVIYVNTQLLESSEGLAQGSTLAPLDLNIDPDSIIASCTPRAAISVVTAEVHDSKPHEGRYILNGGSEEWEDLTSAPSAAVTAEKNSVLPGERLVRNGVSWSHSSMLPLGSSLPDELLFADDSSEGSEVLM

[6] = tested on: Proto-oncogene tyrosine-protein kinase receptor Ret (Homo sapiens), P07949 [V804L]; assay: Inhibition of RET V804L mutant (unknown origin) assessed as residual activity at 1000 nM by KINOMEscan analysis relative to control
[7] = tested on: Epidermal growth factor receptor (Homo sapiens), P00533 [G719C]; assay: Inhibition of EGFR G719C mutant (unknown origin) assessed as residual activity at 1000 nM by KINOMEscan analysis relative to control

Cyclin-dependent kinase 18 (Homo sapiens), sequence (Q07002 whole entry): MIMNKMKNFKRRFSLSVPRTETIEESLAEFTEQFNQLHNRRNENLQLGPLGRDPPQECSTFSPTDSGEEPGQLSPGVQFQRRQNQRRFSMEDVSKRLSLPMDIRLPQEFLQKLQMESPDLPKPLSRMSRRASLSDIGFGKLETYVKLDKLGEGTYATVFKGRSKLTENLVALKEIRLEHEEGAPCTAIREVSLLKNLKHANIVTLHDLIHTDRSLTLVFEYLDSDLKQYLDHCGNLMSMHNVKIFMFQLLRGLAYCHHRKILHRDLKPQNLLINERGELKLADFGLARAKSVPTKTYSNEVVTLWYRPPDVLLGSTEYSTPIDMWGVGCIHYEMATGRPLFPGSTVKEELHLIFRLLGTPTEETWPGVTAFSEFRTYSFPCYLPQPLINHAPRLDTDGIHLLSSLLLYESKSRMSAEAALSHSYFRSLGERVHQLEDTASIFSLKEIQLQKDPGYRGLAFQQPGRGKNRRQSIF
Proto-oncogene tyrosine-protein kinase ROS (Homo sapiens), sequence (P08922 whole entry): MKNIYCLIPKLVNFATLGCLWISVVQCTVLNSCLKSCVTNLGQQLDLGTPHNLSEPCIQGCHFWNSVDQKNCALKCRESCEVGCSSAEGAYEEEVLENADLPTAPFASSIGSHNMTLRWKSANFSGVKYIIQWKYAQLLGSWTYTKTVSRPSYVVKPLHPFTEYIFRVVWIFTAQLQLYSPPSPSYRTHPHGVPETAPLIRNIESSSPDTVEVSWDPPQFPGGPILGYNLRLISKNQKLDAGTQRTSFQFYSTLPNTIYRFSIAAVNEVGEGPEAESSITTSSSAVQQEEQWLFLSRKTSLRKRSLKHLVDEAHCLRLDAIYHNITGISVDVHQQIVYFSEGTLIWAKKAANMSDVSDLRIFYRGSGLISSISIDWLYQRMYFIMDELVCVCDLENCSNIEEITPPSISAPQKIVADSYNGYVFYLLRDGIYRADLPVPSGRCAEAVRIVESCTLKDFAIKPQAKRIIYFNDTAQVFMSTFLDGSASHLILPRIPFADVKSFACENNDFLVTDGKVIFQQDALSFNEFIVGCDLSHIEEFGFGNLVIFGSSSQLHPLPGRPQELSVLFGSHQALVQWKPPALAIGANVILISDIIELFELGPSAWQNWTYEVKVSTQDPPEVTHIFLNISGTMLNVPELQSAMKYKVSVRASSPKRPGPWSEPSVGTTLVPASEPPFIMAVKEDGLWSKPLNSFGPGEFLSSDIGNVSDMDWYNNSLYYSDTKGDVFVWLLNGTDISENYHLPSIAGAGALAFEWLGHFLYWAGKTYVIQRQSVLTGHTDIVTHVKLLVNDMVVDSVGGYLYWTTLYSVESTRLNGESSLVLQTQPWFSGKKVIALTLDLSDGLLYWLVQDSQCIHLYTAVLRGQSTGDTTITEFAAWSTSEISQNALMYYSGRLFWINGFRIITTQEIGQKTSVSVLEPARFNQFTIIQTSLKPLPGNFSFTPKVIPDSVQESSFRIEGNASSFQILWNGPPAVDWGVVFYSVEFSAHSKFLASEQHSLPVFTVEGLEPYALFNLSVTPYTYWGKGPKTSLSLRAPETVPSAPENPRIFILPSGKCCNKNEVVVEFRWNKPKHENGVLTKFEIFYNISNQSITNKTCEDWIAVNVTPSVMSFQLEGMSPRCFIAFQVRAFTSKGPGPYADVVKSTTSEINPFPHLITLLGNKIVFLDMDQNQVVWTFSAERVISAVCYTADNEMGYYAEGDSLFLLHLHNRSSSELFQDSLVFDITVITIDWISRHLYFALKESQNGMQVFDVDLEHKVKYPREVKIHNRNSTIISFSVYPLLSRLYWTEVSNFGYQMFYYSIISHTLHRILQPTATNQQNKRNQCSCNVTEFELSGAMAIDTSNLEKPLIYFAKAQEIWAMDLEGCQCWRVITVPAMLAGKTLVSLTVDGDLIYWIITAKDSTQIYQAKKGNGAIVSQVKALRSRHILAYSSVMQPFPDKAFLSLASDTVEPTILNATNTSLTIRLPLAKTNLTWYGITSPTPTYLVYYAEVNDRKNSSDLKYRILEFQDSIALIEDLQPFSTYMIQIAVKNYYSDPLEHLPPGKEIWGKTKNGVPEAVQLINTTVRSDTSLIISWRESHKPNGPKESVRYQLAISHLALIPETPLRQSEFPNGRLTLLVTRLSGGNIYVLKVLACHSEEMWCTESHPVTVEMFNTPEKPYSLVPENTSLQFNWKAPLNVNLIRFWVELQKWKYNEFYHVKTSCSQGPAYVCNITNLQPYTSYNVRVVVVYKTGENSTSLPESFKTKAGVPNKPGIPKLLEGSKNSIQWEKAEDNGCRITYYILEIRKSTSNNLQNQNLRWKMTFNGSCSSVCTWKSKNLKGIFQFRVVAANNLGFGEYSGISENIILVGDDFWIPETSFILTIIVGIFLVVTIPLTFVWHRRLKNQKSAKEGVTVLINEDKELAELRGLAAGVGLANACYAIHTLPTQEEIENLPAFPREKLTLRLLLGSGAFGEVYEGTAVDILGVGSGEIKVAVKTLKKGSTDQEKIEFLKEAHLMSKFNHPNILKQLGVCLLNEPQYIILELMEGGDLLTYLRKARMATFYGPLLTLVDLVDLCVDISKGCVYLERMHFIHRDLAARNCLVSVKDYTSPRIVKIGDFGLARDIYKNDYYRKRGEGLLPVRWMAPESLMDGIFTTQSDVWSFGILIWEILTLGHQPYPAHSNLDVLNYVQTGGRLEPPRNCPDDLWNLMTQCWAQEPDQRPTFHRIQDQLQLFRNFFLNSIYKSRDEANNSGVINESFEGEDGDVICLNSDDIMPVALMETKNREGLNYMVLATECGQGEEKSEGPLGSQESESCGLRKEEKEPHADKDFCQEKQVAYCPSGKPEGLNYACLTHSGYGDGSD
Proto-oncogene tyrosine-protein kinase receptor Ret (Homo sapiens), P07949 [V804L], sequence (P07949 whole entry V804L): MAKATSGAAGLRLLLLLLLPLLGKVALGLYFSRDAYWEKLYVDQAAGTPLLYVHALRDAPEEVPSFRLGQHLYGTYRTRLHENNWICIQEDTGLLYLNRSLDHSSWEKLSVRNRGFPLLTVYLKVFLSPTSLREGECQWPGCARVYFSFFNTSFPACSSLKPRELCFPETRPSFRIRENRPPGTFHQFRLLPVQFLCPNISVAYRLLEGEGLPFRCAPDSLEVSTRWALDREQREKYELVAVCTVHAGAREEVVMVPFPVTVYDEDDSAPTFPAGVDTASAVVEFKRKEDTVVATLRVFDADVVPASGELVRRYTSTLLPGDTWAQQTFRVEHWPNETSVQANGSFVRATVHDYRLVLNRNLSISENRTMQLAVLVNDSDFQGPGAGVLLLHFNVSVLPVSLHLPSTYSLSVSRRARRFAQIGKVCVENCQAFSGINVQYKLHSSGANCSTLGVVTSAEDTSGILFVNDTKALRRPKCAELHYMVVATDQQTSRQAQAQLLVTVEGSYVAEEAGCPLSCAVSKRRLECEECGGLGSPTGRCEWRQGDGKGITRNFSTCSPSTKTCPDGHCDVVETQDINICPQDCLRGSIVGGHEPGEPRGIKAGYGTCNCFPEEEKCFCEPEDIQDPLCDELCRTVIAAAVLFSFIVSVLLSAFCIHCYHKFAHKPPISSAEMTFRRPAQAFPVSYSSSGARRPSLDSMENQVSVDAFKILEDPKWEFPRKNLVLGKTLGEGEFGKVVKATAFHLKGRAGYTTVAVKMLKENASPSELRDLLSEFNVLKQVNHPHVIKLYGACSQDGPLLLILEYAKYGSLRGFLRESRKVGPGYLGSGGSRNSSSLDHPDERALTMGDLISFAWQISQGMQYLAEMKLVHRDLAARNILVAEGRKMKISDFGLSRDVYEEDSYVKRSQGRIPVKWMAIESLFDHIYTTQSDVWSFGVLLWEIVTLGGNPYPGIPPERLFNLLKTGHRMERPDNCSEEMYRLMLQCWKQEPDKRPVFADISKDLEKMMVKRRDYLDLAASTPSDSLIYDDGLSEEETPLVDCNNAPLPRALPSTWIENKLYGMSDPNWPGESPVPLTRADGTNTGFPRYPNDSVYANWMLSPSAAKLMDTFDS

SMILES	Activity [1]	Activity [2]	Activity [3]	Activity [4]	Activity [5]	Activity [6]	Activity [7]
COc1cc2nc(C)nc(N[C@H](C)c3cccc(-c4cn[nH]c4)c3)c2cc1OC	100%	100%	100%	99%	55%	65%	77%
COc1cc2ncnc(N[C@H](C)c3cccc4ccccc34)c2cc1OC	90%	97%	100%	100%	96%	100%	1.6%
